Source: patent US20220340597A1, “HEXAHYDRO-1H-PYRAZINO[1,2-A]PYRAZINE COMPOUNDS FOR THE TREATMENT OF AUTOIMMUNE DISEASE” (Hoffmann-La Roche Inc., priority 2019, published 2022)
pIC50: −log10 of the molar value.

Biological target: T1, human TLR9 (Homo sapiens, UniProt Q9NR96)
T1 construct: host or cells: HEK293 (HEK-Blue hTLR9)
T1 sequence (Q9NR96 26-1032): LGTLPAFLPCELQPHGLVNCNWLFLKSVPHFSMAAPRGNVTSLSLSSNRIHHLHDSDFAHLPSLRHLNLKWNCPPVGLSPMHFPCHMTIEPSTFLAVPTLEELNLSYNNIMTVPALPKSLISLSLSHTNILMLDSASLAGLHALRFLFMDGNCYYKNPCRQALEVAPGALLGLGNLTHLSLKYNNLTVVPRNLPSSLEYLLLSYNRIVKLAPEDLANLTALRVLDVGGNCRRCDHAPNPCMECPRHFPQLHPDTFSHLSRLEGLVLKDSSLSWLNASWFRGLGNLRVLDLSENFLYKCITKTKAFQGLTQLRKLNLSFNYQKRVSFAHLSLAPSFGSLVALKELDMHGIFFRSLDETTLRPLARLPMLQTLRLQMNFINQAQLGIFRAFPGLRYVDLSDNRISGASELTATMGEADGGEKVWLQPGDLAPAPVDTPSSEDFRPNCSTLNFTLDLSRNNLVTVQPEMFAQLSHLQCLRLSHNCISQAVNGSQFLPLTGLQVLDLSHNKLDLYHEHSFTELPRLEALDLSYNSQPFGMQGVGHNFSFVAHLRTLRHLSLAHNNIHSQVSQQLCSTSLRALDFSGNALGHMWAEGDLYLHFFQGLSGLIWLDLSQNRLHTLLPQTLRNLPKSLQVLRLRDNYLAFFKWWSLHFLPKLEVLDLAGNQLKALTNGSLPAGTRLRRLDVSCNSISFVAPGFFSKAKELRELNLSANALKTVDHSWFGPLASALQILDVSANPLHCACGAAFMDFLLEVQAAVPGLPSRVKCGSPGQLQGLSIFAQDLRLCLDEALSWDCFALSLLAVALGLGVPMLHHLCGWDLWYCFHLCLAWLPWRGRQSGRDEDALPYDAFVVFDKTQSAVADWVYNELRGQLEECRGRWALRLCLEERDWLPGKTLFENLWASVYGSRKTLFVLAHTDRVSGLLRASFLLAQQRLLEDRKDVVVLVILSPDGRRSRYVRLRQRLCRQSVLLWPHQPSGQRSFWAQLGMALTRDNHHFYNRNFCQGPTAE
Assay: HEK293-Blue-hTLR-9 cells assay
Format: cell-based
Conditions: HEK293-Blue-hTLR9 cells, ODN2006 stimulation, 20 hrs, SEAP reporter; read-out: HEK/hTLR9 IC50

SMILES	pIC50
Cc1cc(N2CC3(CN(C)C3)C2)cnc1N1CCN2[C@@H](C1)CN(c1cc(=O)n(C)c3ncccc13)C[C@@H]2C [Example 113, 4-[(4S,9aR)-4-methyl-8-[3-methyl-5-(6-methyl-2,6-diazaspiro[3.3]heptan-2-yl)-2-pyridyl]-3,4,6,7,9,9a-hexahydro-1H-pyrazino[1,2-a]pyrazin-2-yl]-1-methyl-1,8-naphthyridin-2-one]	6.90
[2H]c1ccc2c(N3C[C@@H]4CN(c5ccc([C@H]6CNCCO6)cc5)CCN4[C@@H](C)C3)ccc(C#N)c2n1 [Example 107, 5-[(4S,9aS)-4-methyl-8-[4-[(2S)-morpholin-2-yl]phenyl]-3,4,6,7,9,9a-hexahydro-1H-pyrazino[1,2-a]pyrazin-2-yl]-2-deuterio-quinoline-8-carbonitrile]	6.84
[2H]c1ccc2c(N3C[C@@H]4CN(c5ccc(CCN6C[C@H](OC)[C@@H](N)C6)cn5)CCN4[C@H](C)C3)ccc(C#N)c2n1 [Example 109, 5-[(4R,9aR)-8-[5-[2-[(3S,4S)-3-amino-4-methoxy-pyrrolidin-1-yl]ethyl]-2-pyridyl]-4-methyl-3,4,6,7,9,9a-hexahydro-1H-pyrazino[1,2-a]pyrazin-2-yl]-2-deuterio-quinoline-8-carbonitrile]	6.95
C[C@@H]1CN(c2ccc(C#N)c3ncccc23)C[C@@H]2CN(CCc3ccc(N4CCN[C@@H](C)C4)cn3)CCN21 [Example 20, 5-[(4R,9aS)-4-methyl-8-[2-[5-[(3S)-3-methylpiperazin-1-yl]-2-pyridyl]ethyl]-3,4,6,7,9,9a-hexahydro-1H-pyrazino[1,2-a]pyrazin-2-yl]quinoline-8-carbonitrile]	7.25
C[C@@H]1CN(c2ccc(C#N)c3ncccc23)C[C@@H]2CN(CCc3ccc(N4CC5(CN(C)C5)C4)nc3)CCN21 [Example 22, 5-[(4R,9aS)-4-methyl-8-[2-[6-(6-methyl-2,6-diazaspiro[3.3]heptan-2-yl)-3-pyridyl]ethyl]-3,4,6,7,9,9a-hexahydro-1H-pyrazino[1,2-a]pyrazin-2-yl]quinoline-8-carbonitrile]	7.33
Cc1nc(N2CC(C)(N)C2)ccc1CN1CCN2[C@@H](C1)CN(c1ccc(C#N)c3ncccc13)C[C@H]2C [Example 76, 5-[(4R,9aS)-8-[[6-(3-amino-3-methyl-azetidin-1-yl)-2-methyl-3-pyridyl]methyl]-4-methyl-3,4,6,7,9,9a-hexahydro-1H-pyrazino[1,2-a]pyrazin-2-yl]quinoline-8-carbonitrile]	7.30
[2H]c1ccc2c(N3C[C@@H]4CN(c5ccc(CN6C[C@@H](N)[C@H](OC)C6)c(C)n5)CCN4[C@@H](C)C3)ccc(C#N)c2n1 [Example 123, 5-[(4S,9aR)-8-[5-[[(3R,4R)-3-amino-4-methoxy-pyrrolidin-1-yl]methyl]-6-methyl-2-pyridyl]-4-methyl-3,4,6,7,9,9a-hexahydro-1H-pyrazino[1,2-a]pyrazin-2-yl]-2-deuterio-quinoline-8-carbonitrile]	6.97
C[C@@H]1CN(c2ccc(C#N)c3ncccc23)C[C@@H]2CN(Cc3cncc(N4CCNCC4)c3)CCN21 [Example 57, 5-[(4R,9aS)-4-methyl-8-[(5-piperazin-1-yl-3-pyridyl)methyl]-3,4,6,7,9,9a-hexahydro-1H-pyrazino[1,2-a]pyrazin-2-yl]quinoline-8-carbonitrile]	7.03
C[C@@H]1CN(c2ccc(C#N)c3ncccc23)C[C@@H]2CN(c3ccnc(N4CCNCC4)n3)CCN21 [Example 33, 5-[(4R,9aR)-4-methyl-8-(2-piperazin-1-ylpyrimidin-4-yl)-3,4,6,7,9,9a-hexahydro-1H-pyrazino[1,2-a]pyrazin-2-yl]quinoline-8-carbonitrile]	7.19
C[C@@H]1CN(c2ccc(C#N)c3ncccc23)C[C@@H]2CN(c3ccnc(N4CC[C@@](C)(N)C4)c3)CCN21 [Example 105, 5-[(4R,9aS)-8-[2-[(3R)-3-amino-3-methyl-pyrrolidin-1-yl]-4-pyridyl]-4-methyl-3,4,6,7,9,9a-hexahydro-1H-pyrazino[1,2-a]pyrazin-2-yl]quinoline-8-carbonitrile]	> 7.49
C[C@@H]1CN(c2ccc(C#N)c3ncccc23)C[C@@H]2CN(Cc3cccc(N4CCNCC4)n3)CCN21 [Example 27, 5-[(4R,9aS)-4-methyl-8-[(6-piperazin-1-yl-2-pyridyl)methyl]-3,4,6,7,9,9a-hexahydro-1H-pyrazino[1,2-a]pyrazin-2-yl]quinoline-8-carbonitrile]	7.31
CO[C@@H]1CN(c2ccc(CCN3CCN4[C@@H](C3)CN(c3ccc(C#N)n5nccc35)C[C@H]4C)cc2)C[C@H]1N [Example 68, 4-[(4R,9aS)-8-[2-[4-[(3R,4R)-3-amino-4-methoxy-pyrrolidin-1-yl]phenyl]ethyl]-4-methyl-3,4,6,7,9,9a-hexahydro-1H-pyrazino[1,2-a]pyrazin-2-yl]pyrazolo[1,5-a]pyridine-7-carbonitrile]	7.39
